From PubChem BioAssay AID1902 (Broad Institute, 2009) come the findings set out here.

The structures appear in SMILES notation. Active and inactive are the calls of the source.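 How the source made its calls: active means EC50 no more than a set limit of log units above the highest dose; inactive means the rest.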

This experiment concerns the target S. pyogenes SKKanGAS, kanamycin survival, BacTiterGlo, 6 h. As to the kind of experiment: SKKanGAS survival reduction under kanamycin, dose response, streptokinase promoter inhibitor project, SKKanGAS strain, luminescence, dose confirmation (AID 1902).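 Further: lower survival reflects blocked streptokinase promoter driving kanamycin resistance gene.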
As for `COc1ccc(-n2c(=S)[nH]c3cc(C(=O)Nc4ccc(C)c(F)c4)ccc3c2=O)c(OC)c1`, the EC50 (in general, the concentration at which the effect is half-maximal) is 2.84 µM. `CSc1nsc2nc(=O)c(/C=C3\C=Nc4ccccc43)c(N)n12`: the EC50 was 3.57 µM. On to `Cc1cc(N2CCC(C)CC2)nc(-n2nc(C)cc2C)n1`, for which the EC50 was 7.73 µM.

With `COCc1cc(Sc2c(Cl)cccc2Cl)nc(-c2ccccc2)n1`, the concentration giving a half-maximal response (EC50) was 10.5 µM. As for `CC12CCC(C(=O)NNC(=O)c3ccccc3)(OC1=O)C2(C)C` (stereo not drawn), the figure is > 15 µM (inactive); as for `COc1ccc(Cl)cc1/C=C/c1ccc2cccc(O)c2n1`, 0.388 µM.

Take `CCc1nnc(NC(=O)c2ccc(S(=O)(=O)N3CCCc4ccccc43)cc2)o1`: the concentration giving a half-maximal response (EC50) was 1.68 µM. Take `Cc1ccc(NC2=NCC(Cc3ccc(Br)cc3)S2)cc1` (stereo not drawn): the EC50 was 0.557 µM. For `CC(C)c1ccc2[nH]c3c(c2c1)CCC/C3=N\NC(=O)c1ccncc1`, the half-maximal effective concentration (EC50) is 2.43 µM. As for `CCN1CCN(Cc2ccc(NC(=O)c3ccc(C)c(NC(=O)C(=O)c4c[nH]c5ccccc45)c3)cc2C(F)(F)F)CC1`, the figure is 3.34 µM; as for `Cc1cc(C)c(OCC(=O)N2CCN(c3ncc(C(F)(F)F)cc3Cl)CC2)c(C)c1`, 6.88 µM. With `O=[N+]([O-])c1c(NCCCO)cc(Sc2nc3ccccc3s2)c2nonc12`, the EC50 was 2 µM. Take `CN1C(=O)/C(=C/c2ccccc2F)Sc2ccc(C(=O)N3CCCC3)cc21`: the EC50 was 1.06 µM. For `COc1ccc2nc(Nc3nc(C)c(C(C)=O)s3)sc2c1`, the EC50 was 6.64 µM. Turning to `FC(F)(F)c1cccc(NC(=S)NNC(=S)Nc2ccc(Cl)cc2)c1`, the EC50 was 4.81 µM. `O=C(/C=C/c1cccs1)NC(=S)NNC(=O)Cc1cccs1`: the EC50 was 2.56 µM. `O=C(Nc1cccc(NC(=O)c2cccnc2)c1)c1ccccc1`: the EC50 was > 15 µM (inactive). For `COCC1CCCCN1C(=O)c1ccc2oc(CCCc3ccccc3)nc2c1` (stereo not drawn), the EC50 is > 15 µM (inactive).

Regarding `Cc1cc(SCC(=O)N/N=C/c2ccc(O)cc2O)c(C)cc1Br`, the EC50 is 1.93 µM. `CCOP(=O)(Cc1ccc(C(=O)CC)o1)OCC`: the EC50 is > 15 µM (inactive).

For `O=C(NCc1ccc(F)cc1)C(=O)Nc1nc(C23CC4CC(CC(C4)C2)C3)cs1`, the concentration giving a half-maximal response (EC50) is 0.637 µM. As for `COC(=O)C1(C(C[N+](=O)[O-])c2ccc(C)cc2)C(=O)NCC1c1ccco1` (stereo not drawn), the figure is 7.39 µM; as for `N#C/C(=C(/O)c1ccc([N+](=O)[O-])o1)c1nc2ccccc2[nH]1`, 2.05 µM; as for `COc1ccccc1NC(=O)Nc1nc(CC(=O)Nc2cc(F)ccc2F)cs1`, 8.85 µM. The figure for `O=[N+]([O-])c1ccc(O)c(/C=N/Nc2ccc(Cl)nn2)c1` is 0.252 µM. For the compound `O=C(Nc1ccccc1C(=O)O)c1cccc(NC(=O)c2ccc(Br)o2)c1`, the EC50 is 4.96 µM. Consider `COc1ccccc1-n1c(SCC(=O)Nc2ccc(Br)cc2)nc(O)cc1=O`, for which the EC50 is 10.3 µM. With `CCCCn1c(SCC(=O)c2ccccc2)nc2c1c(=O)[nH]c(=O)n2C`, the EC50 was 3.43 µM. For the compound `CCCCCCC(=O)N/N=C/c1c(O)n(CCCC)c(=S)[nH]c1=O`, the EC50 is 2.12 µM. Turning to `Cc1ccc2nc(Nc3nc(-c4ccccc4)cc(=O)[nH]3)nc(C)c2c1`, the EC50 was 2.64 µM. Consider `Clc1ccccc1CN(Cc1ccccc1)c1ncnc2nc[nH]c12`, for which the EC50 was 3.85 µM.

With `CC(C)C1C(c2ccccc2)N(C)C(c2ccccc2)CC1(O)c1ccccc1` (stereo not drawn), the EC50 was 2.48 µM. `Fc1ccc(-n2cc(-c3ccccc3)c3c(=S)nc[nH]c32)cc1`: the concentration giving a half-maximal response (EC50) is 8.7 µM. In the case of `Cc1ccc(C)c(NC(=S)N/N=C2/CCCCc3ccccc32)c1`, the concentration for a half-maximal effect (EC50) was 0.643 µM.

`CCCn1c(NC(=O)C23CC4CC(CC(O)(C4)C2)C3)nc2ccccc21`: the EC50 was 3.09 µM.

Turning to `Cc1cc(C)c(C(=O)CC(=O)c2ccccc2Cl)c(O)c1`, the EC50 is 6.76 µM. As for `CC(=O)NC(=S)Nc1ccc(NC(=S)NC(=O)/C=C/c2ccco2)cc1`, the figure is 8.72 µM; as for `Cc1cccc(/C=C/C(=O)c2ccc([N+](=O)[O-])o2)c1`, 4.81 µM. `COc1ccc(-c2nnc(NC(=O)c3cc(Cl)ccc3Cl)o2)cc1`: the half-maximal effective concentration (EC50) is 0.814 µM. Consider `Cc1cccc(N=Nc2c(C)nn(-c3ccccc3)c2N)c1C`, for which the half-maximal effective concentration (EC50) is 11.8 µM. Turning to `Cc1cc(C)c2nc(SCCc3ccccc3)nc(C)c2c1`, the half-maximal effective concentration (EC50) is 5.85 µM. As for `COC(=O)c1sc(N2C(=O)C(O)=C(C(=O)c3ccc(C)o3)C2c2ccc([N+](=O)[O-])cc2)nc1C` (stereo not drawn), the figure is 4.1 µM; as for `C=C(C)[C@@H]1CCC2(C(=O)O)CC[C@]3(C)[C@H](CC[C@@H]4[C@@]5(C)CCC(=O)C(C)(C)[C@@H]5CC[C@]43C)[C@@H]12` (stereo partly drawn), 1.85 µM; as for `Cc1noc(NS(=O)(=O)c2ccc(NC(=O)c3oc4ccc(Cl)cc4c3C)cc2)c1C`, 6.63 µM. The figure for `COc1cnc(-c2ccccn2)nc1Oc1ccccc1Cl` is 14.4 µM. `O=c1c2ccccc2c(-c2ccccc2)nn1Cc1c(Cl)cccc1Cl`: the EC50 was 6.08 µM. In the case of `CCn1c(=O)n(CC)c2cc(N3CCCC3)c(NC(=O)c3cc(Br)ccc3OC)cc21`, the EC50 is 4.28 µM. Regarding `CC(C)c1ccc(-c2nc(N3CCCC3)nc3n[nH]c(N)c23)cc1`, the EC50 is 8.74 µM. Consider `Oc1ccccc1/C=N/NC(=S)NC1CC2CCC1C2` (stereo not drawn), for which the EC50 is 3.74 µM. The figure for `Cc1ccc(C2C(/C=C3/SC(=S)NC3=O)=C(c3cccs3)Oc3ccccc32)cc1` (stereo not drawn) is 0.643 µM; for `COc1cc(/C=C/c2ccc3cccc(O)c3n2)cc(OC)c1OC` it is 3.66 µM; for `CC1=C(C(=O)Nc2ccc([N+](=O)[O-])cc2)C(c2cccc(C(F)(F)F)c2)NC(=S)N1c1ccccc1` (stereo not drawn) it is 4.02 µM. In the case of `Cc1cccc2sc(NNC(=O)c3cc(-c4cccs4)nc4ccccc34)nc12`, the EC50 was 1.05 µM.

`O=C(N/N=C/c1cc(Br)cc(Br)c1O)c1cccc(S(=O)(=O)N2CCOCC2)c1`: the EC50 was 1.17 µM. With `Cc1cc(/C=C2/C(=N)N3C(=NC2=O)SN=C3S(C)(=O)=O)c(C)n1-c1ccc(F)cc1`, the EC50 is 4.98 µM. The figure for `Cc1ccc(S(=O)(=O)CNC(=S)c2ccc3ccccc3c2)cc1` is 4.18 µM. As for `CCOC(=O)C1=NN(C(=O)c2ccc(OC)cc2)C(O)(c2ccc(Cl)cc2)C1` (stereo not drawn), the EC50 is 6 µM. The figure for `Cc1cnn(-c2nc(-c3ccccc3)cc(-c3ccccc3)n2)c1` is 4.51 µM; for `O=C(Nc1nnc(-c2ccc(Br)cc2)o1)c1cccc(N2C(=O)CCC2=O)c1` it is 1.35 µM. With `CCCCc1c(C)nn(-c2nnc3c4ccccc4n(CC)c3n2)c1C`, the concentration giving a half-maximal response (EC50) is 1.84 µM. In the case of `O=C(O)c1ccc(N/N=C/c2ccc(OC(=O)c3cccc(Cl)c3)cc2)cc1`, the EC50 was 1.4 µM. In the case of `CCc1ccc(OCC(=O)NNC(=S)NC(=O)C2CCCCC2)c(Br)c1`, the EC50 is under 0.06 µM. For the compound `Cc1cc(NC(=O)c2ccc(C)s2)n(-c2nc3ccccc3[nH]2)n1`, the concentration for a half-maximal effect (EC50) is 3.44 µM. On to `c1ccc(N2CCN(c3nc(-c4ccccn4)nc4ccccc34)CC2)cc1`, for which the EC50 is under 0.06 µM. Turning to `C#CCOCCOCCOCCNc1nc(N2CCN(C(=O)CCCCCCCCCCNC(=O)[C@H](CCCCN)n3cc(C[C@@H](C)CC)nn3)CC2)nc(N2CCN(C(=O)CCCCCCCCCCNC(=O)[C@H](CCCCN)n3cc(C[C@@H](C)CC)nn3)CC2)n1`, the EC50 was 5.16 µM.

In the case of `Cc1cccc(C)c1OC(=O)C(c1ccccc1)c1ccccc1`, the 50% effective concentration (EC50) is 3.17 µM. `Cc1onc(-c2c(F)cccc2Cl)c1C(=O)NCc1ccc2c(c1)OCO2`: the EC50 was > 15 µM (inactive).

Take `CCSc1cc(N2CCCC2)nc(-c2ccccc2)n1`: the EC50 is > 15 µM (inactive). The figure for `COc1cccc(-c2nnc(NC(=O)c3ccc(S(=O)(=O)N4CC(C)OC(C)C4)cc3)o2)c1` (stereo not drawn) is 1.16 µM; for `Cc1cc(N/N=C/c2c(O)ccc3ccccc23)nc(-c2ccccc2O)n1` it is 0.257 µM. `Cc1noc(C)c1C(=O)Nc1ccc2ccccc2c1`: the EC50 was > 15 µM (inactive). On to `Cc1ccc2[nH]c(O)c(N=NC(=O)c3ccc(NS(=O)(=O)c4cccs4)cc3)c2c1`, for which the 50% effective concentration (EC50) is 1.25 µM. Take `O=C(/C=C/c1cn(-c2ccccc2)nc1-c1ccccc1)Nc1ccc(C(=O)O)cc1`: the EC50 is 3.76 µM. The figure for `CCN(CC)c1ccc(NC(=O)c2c(C)noc2C)cc1` is > 15 µM (inactive); for `COc1ccc(OC)c(N=Cc2c(O)n(Cc3ccccc3)c(=S)[nH]c2=O)c1` it is > 15 µM (inactive). For the compound `CC(=O)N(CCC(Cc1ccccc1)c1ccc2c(c1)OCO2)Cc1ccc(Cl)cc1` (stereo not drawn), the concentration giving a half-maximal response (EC50) is 3.42 µM.

In the case of `Cc1cc(C)c2sc(NNC(=O)c3ccc(S(=O)(=O)N4CCc5ccccc5C4)cc3)nc2c1`, the EC50 is 1.06 µM.

For the compound `Cc1ccc(/C=C/C(=O)C2C(=O)c3ccccc3C2=O)cc1`, the EC50 was 1.62 µM. `O=c1[nH]c(-c2ccccn2)nc2sc(-c3ccccc3)cc12`: the EC50 was 0.261 µM. Regarding `COc1ccc(C(=O)NC(=S)NNC(=O)COc2ccccc2)cc1`, the EC50 was 0.666 µM. For `CCCc1cc2c(-c3ccccc3)cc(=O)oc2cc1OCc1ccc(C(=O)O)o1`, the EC50 was 8.9 µM. In the case of `COc1ccc(NC(=O)CN(C)C(=O)/C=C/c2cn(-c3ccccc3)nc2-c2ccc(F)cc2)cc1`, the EC50 was 8.39 µM. On to `Cc1cc(C(F)(F)F)c(C#N)c(SCC(=O)Nc2nc3cc(Br)ccc3s2)n1`, for which the EC50 is 5.7 µM. As to `Clc1ccc2nc(-c3ccccn3)c(Nc3ccc4c(c3)OCO4)n2c1`, the concentration for a half-maximal effect (EC50) is 6.99 µM. With `CNC(=S)N/N=C/c1cn(Cc2ccc(C)cc2)c2ccccc12`, the EC50 is 5.33 µM. For the compound `COc1ccc(-c2oc(NC(=O)CSc3ncn[nH]3)c(C#N)c2-c2ccc(OC)cc2)cc1`, the EC50 is 3.61 µM. Turning to `Cc1ccccc1Oc1nc(-c2ccccn2)nc2ccccc12`, the EC50 was 4.19 µM. `CCOC(=O)C1=C(O)c2ccccc2C(=O)/C1=C\c1ccc(CC)cc1`: the EC50 was 8.49 µM. Consider `OC(CNCc1ccco1)Cn1c2ccc(Br)cc2c2cc(Br)ccc21` (stereo not drawn), for which the EC50 is 5.85 µM. As to `CCCCSc1ccc2nc(-c3ccc(C#N)cc3)cn2c1`, the EC50 was 7.72 µM. For the compound `Cc1ccc(C(=O)N2CCOCC2)cc1S(=O)(=O)N1CCOCC1`, the EC50 is > 15 µM (inactive). On to `Oc1cc(OCc2ccccc2)ccc1-c1[nH]ncc1-c1ccccc1`, for which the half-maximal effective concentration (EC50) was 3.06 µM. Regarding `Cn1c(-c2c(N)n(C3CCCC3)c3nc4ccccc4nc23)nc2ccccc21`, the EC50 was 1.12 µM.
